Data reported in PubChem BioAssay AID1259407 (Chemical Carcinogenesis Research Information System (CCRIS), 2018).
Activity calls are given as the source filed them. No rule for the calls is given here.

System: CCRIS mutagenicity, Ames/micronucleus/aberration tests
Assay: CCRIS mutagenicity studies
[1] = Test System: AMES SALMONELLA TYPHIMURIUM, Strain/Indicator: TA98, Metabolic Activation: NONE, Method: PREINCUBATION
[2] = Test System: AMES SALMONELLA TYPHIMURIUM, Strain/Indicator: TA98, Metabolic Activation: NONE, Method: STANDARD PLATE
[3] = Test System: AMES SALMONELLA TYPHIMURIUM, Strain/Indicator: TA100, Metabolic Activation: NONE, Method: STANDARD PLATE
[4] = Test System: AMES SALMONELLA TYPHIMURIUM, Strain/Indicator: TA1535, Metabolic Activation: NONE, Method: STANDARD PLATE
[5] = Test System: AMES SALMONELLA TYPHIMURIUM, Strain/Indicator: TA1537, Metabolic Activation: NONE, Method: STANDARD PLATE
[6] = Test System: AMES SALMONELLA TYPHIMURIUM, Strain/Indicator: TA1538, Metabolic Activation: NONE, Method: STANDARD PLATE

Cc1ccc(N=Nc2ccc(C)c(N)c2)cc1N
mutagenic call [1]: inactive; negative
mutagenic call (Test System: AMES SALMONELLA TYPHIMURIUM, Strain/Indicator: TA98, Metabolic Activation: NONE, Method: SUSPENSION/PLATE): inactive; negative
mutagenic call (Test System: AMES SALMONELLA TYPHIMURIUM, Strain/Indicator: TA98, Metabolic Activation: RAT, LIVER, S-9, PCB, Method: PREINCUBATION): active; positive
mutagenic call (Test System: AMES SALMONELLA TYPHIMURIUM, Strain/Indicator: TA98, Metabolic Activation: RAT, LIVER, S-9, PHENOBARBITAL AND 5,6-BENZOFLAVONE, Method: SUSPENSION/PLATE): active; positive
mutagenic call (Test System: AMES SALMONELLA TYPHIMURIUM, Strain/Indicator: TA100, Metabolic Activation: NONE, Method: SUSPENSION/PLATE): inactive; negative
mutagenic call (Test System: AMES SALMONELLA TYPHIMURIUM, Strain/Indicator: TA100, Metabolic Activation: RAT, LIVER, S-9, PHENOBARBITAL AND 5,6-BENZOFLAVONE, Method: SUSPENSION/PLATE): active; positive

COC(=O)c1ccc([N+](=O)[O-])o1
mutagenic call [2]: active; positive
mutagenic call [3]: active; positive

Cc1ccc(-c2nc3n(c2[N+](=O)[O-])CCS3)cc1
mutagenic call [2]: inactive; negative
mutagenic call [3]: active; positive
mutagenic call [4]: inactive; negative
mutagenic call [5]: inactive; negative
mutagenic call [6]: inactive; negative

CCC(=O)CN(CC(=O)CC)N=O
mutagenic call (Test System: CHINESE HAMSTER V-79, Strain/Indicator: V-79/OUABAIN, Metabolic Activation: HAMSTER, HEPATOCYTES, Method: CELL-MEDIATED): active; positive

O=[N+]([O-])c1cc(C(F)(F)F)cc([N+](=O)[O-])c1Cl
mutagenic call [2]: inactive; negative
mutagenic call (Test System: AMES SALMONELLA TYPHIMURIUM, Strain/Indicator: TA98, Metabolic Activation: RAT, LIVER, S-9, AROCLOR 1254, Method: STANDARD PLATE): inactive; negative
mutagenic call [3]: inactive; negative
mutagenic call (Test System: AMES SALMONELLA TYPHIMURIUM, Strain/Indicator: TA100, Metabolic Activation: RAT, LIVER, S-9, AROCLOR 1254, Method: STANDARD PLATE): inactive; negative
mutagenic call [4]: inactive; negative
mutagenic call (Test System: AMES SALMONELLA TYPHIMURIUM, Strain/Indicator: TA1535, Metabolic Activation: RAT, LIVER, S-9, AROCLOR 1254, Method: STANDARD PLATE): inactive; negative
mutagenic call [5]: inactive; negative
mutagenic call (Test System: AMES SALMONELLA TYPHIMURIUM, Strain/Indicator: TA1537, Metabolic Activation: RAT, LIVER, S-9, AROCLOR 1254, Method: STANDARD PLATE): inactive; negative
mutagenic call [6]: inactive; negative
mutagenic call (Test System: AMES SALMONELLA TYPHIMURIUM, Strain/Indicator: TA1538, Metabolic Activation: RAT, LIVER, S-9, AROCLOR 1254, Method: STANDARD PLATE): inactive; negative

COc1ccc2c(c1)C(=O)c1c(OC)c(OC)cc3ccnc-2c13
mutagenic call (Test System: AMES SALMONELLA TYPHIMURIUM, Strain/Indicator: TA98, Metabolic Activation: RAT, LIVER, S-9, PHENOBARBITAL AND BETA-NAPHTHOFLAVONE, Method: PREINCUBATION): active; positive
mutagenic call (Test System: AMES SALMONELLA TYPHIMURIUM, Strain/Indicator: TA100, Metabolic Activation: RAT, LIVER, S-9, PHENOBARBITAL AND BETA-NAPHTHOFLAVONE, Method: PREINCUBATION): active; positive

COc1cccc2c1C(=O)c1c(O)c3c(c(O)c1C2=O)C[C@@](O)(C(=O)CO)C[C@@H]3O[C@H]1C[C@H](N)[C@H](OC)[C@H](C)O1
mutagenic call (Test System: AMES SALMONELLA TYPHIMURIUM, Strain/Indicator: GW257, Metabolic Activation: NONE, Method: STANDARD PLATE): active; positive
mutagenic call (Test System: AMES SALMONELLA TYPHIMURIUM, Strain/Indicator: TA97, Metabolic Activation: NONE, Method: STANDARD PLATE): active; positive
mutagenic call [1]: active; positive
mutagenic call [2]: active; positive
mutagenic call [3]: active; positive
mutagenic call (Test System: AMES SALMONELLA TYPHIMURIUM, Strain/Indicator: TA104, Metabolic Activation: NONE, Method: STANDARD PLATE): active; positive
mutagenic call [6]: active; positive
mutagenic call (Test System: AMES SALMONELLA TYPHIMURIUM, Strain/Indicator: TA2637, Metabolic Activation: NONE, Method: STANDARD PLATE): active; positive

CCc1ccc(N)cc1
mutagenic call (Test System: E. COLI, Strain/Indicator: WP2 UVRA, Metabolic Activation: NONE, Method: FLUCTUATION TEST): inactive; negative

Cc1ccc(N)cc1C
mutagenic call (Test System: AMES SALMONELLA TYPHIMURIUM, Strain/Indicator: TA97, Metabolic Activation: HAMSTER, LIVER, S-9, AROCLOR 1254 (10%), Method: PREINCUBATION): inactive; negative
mutagenic call (Test System: AMES SALMONELLA TYPHIMURIUM, Strain/Indicator: TA97, Metabolic Activation: NONE, Method: PREINCUBATION): inactive; negative
mutagenic call (Test System: AMES SALMONELLA TYPHIMURIUM, Strain/Indicator: TA97, Metabolic Activation: RAT, LIVER, S-9, AROCLOR 1254 (10%), Method: PREINCUBATION): inactive; negative
mutagenic call (Test System: AMES SALMONELLA TYPHIMURIUM, Strain/Indicator: TA98, Metabolic Activation: HAMSTER, LIVER, S-9, AROCLOR 1254 (10%), Method: PREINCUBATION): inactive; negative
mutagenic call [1]: inactive; negative
mutagenic call (Test System: AMES SALMONELLA TYPHIMURIUM, Strain/Indicator: TA98, Metabolic Activation: RAT LIVER S-9, PHENOBARBITAL AND BETA-NAPHTHOFLAVONE, Method: PREINCUBATION): inactive; negative
mutagenic call (Test System: AMES SALMONELLA TYPHIMURIUM, Strain/Indicator: TA98, Metabolic Activation: RAT, LIVER, S-9, AROCLOR 1254 (10%), Method: PREINCUBATION): inactive; negative
mutagenic call (Test System: AMES SALMONELLA TYPHIMURIUM, Strain/Indicator: TA100, Metabolic Activation: HAMSTER, LIVER, S-9, AROCLOR 1254 (10%), Method: PREINCUBATION): active; positive
mutagenic call (Test System: AMES SALMONELLA TYPHIMURIUM, Strain/Indicator: TA100, Metabolic Activation: NONE, Method: PREINCUBATION): inactive; negative
mutagenic call (Test System: AMES SALMONELLA TYPHIMURIUM, Strain/Indicator: TA100, Metabolic Activation: RAT LIVER S-9, PHENOBARBITAL AND BETA-NAPHTHOFLAVONE, Method: PREINCUBATION): inactive; negative
mutagenic call (Test System: AMES SALMONELLA TYPHIMURIUM, Strain/Indicator: TA100, Metabolic Activation: RAT, LIVER, S-9, AROCLOR 1254 (10%), Method: PREINCUBATION): inactive; negative
mutagenic call (Test System: AMES SALMONELLA TYPHIMURIUM, Strain/Indicator: TA1535, Metabolic Activation: HAMSTER, LIVER, S-9, AROCLOR 1254 (10%), Method: PREINCUBATION): inactive; negative
mutagenic call (Test System: AMES SALMONELLA TYPHIMURIUM, Strain/Indicator: TA1535, Metabolic Activation: NONE, Method: PREINCUBATION): inactive; negative
mutagenic call (Test System: AMES SALMONELLA TYPHIMURIUM, Strain/Indicator: TA1535, Metabolic Activation: RAT LIVER S-9, PHENOBARBITAL AND BETA-NAPHTHOFLAVONE, Method: PREINCUBATION): inactive; negative
mutagenic call (Test System: AMES SALMONELLA TYPHIMURIUM, Strain/Indicator: TA1535, Metabolic Activation: RAT, LIVER, S-9, AROCLOR 1254 (10%), Method: PREINCUBATION): inactive; negative
mutagenic call (Test System: AMES SALMONELLA TYPHIMURIUM, Strain/Indicator: TA1537, Metabolic Activation: HAMSTER, LIVER, S-9, AROCLOR 1254 (10%), Method: PREINCUBATION): inactive; negative
mutagenic call (Test System: AMES SALMONELLA TYPHIMURIUM, Strain/Indicator: TA1537, Metabolic Activation: NONE, Method: PREINCUBATION): inactive; negative
mutagenic call (Test System: AMES SALMONELLA TYPHIMURIUM, Strain/Indicator: TA1537, Metabolic Activation: RAT LIVER S-9, PHENOBARBITAL AND BETA-NAPHTHOFLAVONE, Method: PREINCUBATION): inactive; negative
mutagenic call (Test System: AMES SALMONELLA TYPHIMURIUM, Strain/Indicator: TA1538, Metabolic Activation: NONE, Method: PREINCUBATION): inactive; negative
mutagenic call (Test System: AMES SALMONELLA TYPHIMURIUM, Strain/Indicator: TA1538, Metabolic Activation: RAT LIVER S-9, PHENOBARBITAL AND BETA-NAPHTHOFLAVONE, Method: PREINCUBATION): inactive; negative
mutagenic call (Test System: E.COLI, Strain/Indicator: WP2UVRA, Metabolic Activation: NONE, Method: PREINCUBATION): inactive; negative
mutagenic call (Test System: E.COLI, Strain/Indicator: WP2UVRA, Metabolic Activation: RAT LIVER S-9, PHENOBARBITAL AND BETA-NAPHTHOFLAVONE, Method: PREINCUBATION): inactive; negative
